According to ChEMBL document CHEMBL5390315, “Targeted Protein Degradation of Histone Deacetylases by Hydrophobically Tagged Inhibitors” (ACS Med Chem Lett, 2023):
Active and inactive are the calls of the source. The rule behind the calls is not given here.

Key:
MM1.S [1] = assay: Antiproliferative activity against human MM.1S cells assessed as inhibition of cell growth at upto 100 uM incubated for 72 hrs by microplate photometer analysis; format: functional, cell-based
[2] = biological target: T1, Protein deacetylase HDAC6 (Homo sapiens) (UniProt Q9UBN7); assay: Induction of HDAC6 degradation in human MM1.S cells at 20 uM incubated for 24 hrs by immunoblot analysis; format: cell-based
T1 sequence (whole entry): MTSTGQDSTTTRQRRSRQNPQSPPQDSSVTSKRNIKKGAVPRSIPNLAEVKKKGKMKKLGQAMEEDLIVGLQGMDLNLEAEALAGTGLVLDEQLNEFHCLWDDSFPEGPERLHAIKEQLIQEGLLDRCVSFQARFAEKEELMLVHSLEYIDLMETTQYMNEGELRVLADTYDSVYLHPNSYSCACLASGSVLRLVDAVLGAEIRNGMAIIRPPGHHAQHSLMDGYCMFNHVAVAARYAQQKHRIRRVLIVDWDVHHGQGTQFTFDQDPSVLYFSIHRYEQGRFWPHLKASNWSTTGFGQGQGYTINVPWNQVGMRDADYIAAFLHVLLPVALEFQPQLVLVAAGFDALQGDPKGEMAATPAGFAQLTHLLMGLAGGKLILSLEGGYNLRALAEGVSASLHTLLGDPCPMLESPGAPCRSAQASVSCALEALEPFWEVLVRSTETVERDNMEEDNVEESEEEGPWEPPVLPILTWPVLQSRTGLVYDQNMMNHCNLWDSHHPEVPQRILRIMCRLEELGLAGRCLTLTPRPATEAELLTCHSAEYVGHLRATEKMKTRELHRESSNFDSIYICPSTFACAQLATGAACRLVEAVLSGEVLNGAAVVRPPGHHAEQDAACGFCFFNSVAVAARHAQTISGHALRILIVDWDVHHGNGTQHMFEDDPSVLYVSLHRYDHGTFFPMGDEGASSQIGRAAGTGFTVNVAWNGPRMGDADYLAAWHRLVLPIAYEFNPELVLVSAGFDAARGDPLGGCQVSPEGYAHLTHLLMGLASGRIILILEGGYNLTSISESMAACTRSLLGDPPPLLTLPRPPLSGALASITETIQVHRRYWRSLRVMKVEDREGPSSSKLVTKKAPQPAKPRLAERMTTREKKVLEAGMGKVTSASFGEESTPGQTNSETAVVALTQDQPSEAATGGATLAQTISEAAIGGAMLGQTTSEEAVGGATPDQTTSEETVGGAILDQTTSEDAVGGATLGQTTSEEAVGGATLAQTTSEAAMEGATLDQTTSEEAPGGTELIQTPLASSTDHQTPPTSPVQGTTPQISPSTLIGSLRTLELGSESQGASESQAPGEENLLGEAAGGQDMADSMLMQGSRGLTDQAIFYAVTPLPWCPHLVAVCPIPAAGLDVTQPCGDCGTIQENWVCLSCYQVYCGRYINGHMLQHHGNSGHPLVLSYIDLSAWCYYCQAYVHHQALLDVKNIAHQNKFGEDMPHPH

Histone deacetylase 1 [3] = biological target: T2, Histone deacetylase 1 (Homo sapiens, UniProt Q13547); assay: Induction of HDAC1 degradation in human MM1.S cells at 20 uM incubated for 24 hrs by immunoblot analysis; format: cell-based
T2 sequence (Q13547 whole entry): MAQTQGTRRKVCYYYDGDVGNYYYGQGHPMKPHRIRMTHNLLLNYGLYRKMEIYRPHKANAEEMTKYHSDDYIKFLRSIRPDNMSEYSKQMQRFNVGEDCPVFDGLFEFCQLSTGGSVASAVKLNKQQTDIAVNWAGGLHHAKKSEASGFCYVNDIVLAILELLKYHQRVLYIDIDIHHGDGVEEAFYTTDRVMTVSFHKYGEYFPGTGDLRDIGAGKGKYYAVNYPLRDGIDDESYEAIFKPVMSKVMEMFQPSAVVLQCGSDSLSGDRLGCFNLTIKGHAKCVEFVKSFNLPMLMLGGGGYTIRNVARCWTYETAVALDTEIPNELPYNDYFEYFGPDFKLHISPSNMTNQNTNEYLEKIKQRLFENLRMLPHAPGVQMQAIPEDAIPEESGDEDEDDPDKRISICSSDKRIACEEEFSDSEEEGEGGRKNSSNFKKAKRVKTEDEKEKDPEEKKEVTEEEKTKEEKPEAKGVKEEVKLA

Histone deacetylase 1 [4] = biological target: T2, Histone deacetylase 1; assay: Induction of HDAC1 degradation in human MM1.S cells incubated for 24 hrs by immunoblot analysis; format: cell-based
Histone deacetylase 2 [5] = biological target: T3, Histone deacetylase 2 (Homo sapiens, UniProt Q92769)
T3 sequence (Q92769 whole entry): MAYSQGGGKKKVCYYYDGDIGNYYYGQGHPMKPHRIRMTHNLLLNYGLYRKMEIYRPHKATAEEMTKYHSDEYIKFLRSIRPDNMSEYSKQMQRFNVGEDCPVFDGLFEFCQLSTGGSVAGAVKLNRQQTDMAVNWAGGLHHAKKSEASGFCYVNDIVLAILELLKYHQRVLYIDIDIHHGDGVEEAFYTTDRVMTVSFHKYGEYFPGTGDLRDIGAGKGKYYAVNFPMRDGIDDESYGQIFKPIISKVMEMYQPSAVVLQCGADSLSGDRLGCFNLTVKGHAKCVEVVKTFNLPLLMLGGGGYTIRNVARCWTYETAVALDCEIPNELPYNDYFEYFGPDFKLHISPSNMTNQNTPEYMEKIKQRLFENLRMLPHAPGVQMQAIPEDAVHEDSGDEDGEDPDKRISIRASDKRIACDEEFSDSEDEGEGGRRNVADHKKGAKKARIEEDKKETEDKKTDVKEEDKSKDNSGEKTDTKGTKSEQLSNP
Description: Inhibition of C-terminal flag tagged human recombinant full length HDAC2 (1 to 488 residues) using Z- Lys(Ac)-AMC as fluorogenic substrate incubated for 90 mins followed by trypsin addition and measured after 30 min by microplate reader analysis

Histone deacetylase 1 [6] = biological target: T2, Histone deacetylase 1; assay: Induction of HDAC1 degradation in human MM1.S cells at 20 uM incubated for 24 hrs in the presence of MG132 by immunoblot analysis; format: cell-based
MM1.S [7] = assay: Induction of apoptosis in human MM1.S cells assessed as early apoptosis at 20 uM incubated for 48 hrs by Annexin V-FITC/PI staining based flow cytometry; format: functional, cell-based
Histone deacetylase = assay: Inhibition of human recombinant HDAC in human MM.1S cells using Boc-Lys(Epsilon-Ac)-AMC as substrate preincubated for 18 hrs followed by substrate addition and measured after 3 hrs by microplate reader analysis; format: cell-based; details: mm1.s
[8] = biological target: Histone deacetylase 4 (Homo sapiens) (UniProt P56524); assay: Inhibition of N-terminal GST/C-terminal His-tagged human recombinant HDAC4 (627 to 1084 residues) expressed in baculovirus expression system using Boc-Lys(Tfa)-AMC as fluorogenic substrate at 10 uM incubated for 90 min followed by trypsin addition and measured after 30 min by microplate reader analysis; details: time 120.0 min
Histone deacetylase 4 (Homo sapiens), sequence (P56524 whole entry, the tested form may be a part): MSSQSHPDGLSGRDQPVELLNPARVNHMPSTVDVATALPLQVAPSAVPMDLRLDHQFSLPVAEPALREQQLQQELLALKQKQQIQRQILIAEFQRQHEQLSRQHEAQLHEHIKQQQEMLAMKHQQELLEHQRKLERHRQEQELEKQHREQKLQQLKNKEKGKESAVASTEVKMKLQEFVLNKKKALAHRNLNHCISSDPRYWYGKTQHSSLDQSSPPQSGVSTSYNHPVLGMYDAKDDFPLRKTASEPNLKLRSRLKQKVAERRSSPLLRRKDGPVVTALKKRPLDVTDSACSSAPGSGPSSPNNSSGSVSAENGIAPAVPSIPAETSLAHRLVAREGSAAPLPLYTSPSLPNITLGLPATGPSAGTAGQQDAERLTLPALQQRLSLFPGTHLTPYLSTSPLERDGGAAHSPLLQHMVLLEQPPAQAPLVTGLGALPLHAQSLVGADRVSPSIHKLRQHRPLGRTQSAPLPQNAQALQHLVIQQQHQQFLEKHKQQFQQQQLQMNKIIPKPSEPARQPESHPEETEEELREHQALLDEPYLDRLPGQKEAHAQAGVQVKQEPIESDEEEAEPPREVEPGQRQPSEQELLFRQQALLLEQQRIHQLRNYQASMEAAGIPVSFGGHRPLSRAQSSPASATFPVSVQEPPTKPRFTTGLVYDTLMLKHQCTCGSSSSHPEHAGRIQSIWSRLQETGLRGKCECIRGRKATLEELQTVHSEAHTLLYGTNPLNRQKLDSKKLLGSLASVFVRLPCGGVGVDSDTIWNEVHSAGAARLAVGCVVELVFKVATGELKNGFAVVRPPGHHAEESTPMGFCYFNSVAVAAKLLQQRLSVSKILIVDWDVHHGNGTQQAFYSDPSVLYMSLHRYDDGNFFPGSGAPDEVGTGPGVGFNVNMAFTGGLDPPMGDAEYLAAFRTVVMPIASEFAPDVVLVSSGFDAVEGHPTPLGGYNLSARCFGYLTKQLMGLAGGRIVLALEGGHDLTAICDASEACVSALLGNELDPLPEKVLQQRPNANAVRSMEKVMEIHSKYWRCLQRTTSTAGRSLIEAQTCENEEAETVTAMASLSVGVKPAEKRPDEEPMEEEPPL

[9] = biological target: Histone deacetylase 4 (Homo sapiens) (UniProt P56524); assay: Induction of HDAC4 degradation in human MM1.S cells at 20 uM incubated for 24 hrs by immunoblot analysis; format: cell-based
Histone deacetylase 1 [10] = biological target: T2, Histone deacetylase 1; assay: Inhibition of C-terminal 6His tagged human recombinant full length HDAC1 (1 to 482 residues) using Z- Lys(Ac)-AMC as fluorogenic substrate incubated for 90 mins followed by trypsin addition and measured after 30 min by microplate reader analysis
MM1.S [11] = assay: cells; format: functional, cell-based; details: Homo sapiens, 72 h
Description: Antiproliferative activity against human MM.1S cells assessed as inhibition of cell growth incubated for 72 hrs by microplate photometer analysis

MM1.S [12] = assay: Induction of apoptosis in human MM1.S cells assessed as late apoptosis at 20 uM incubated for 48 hrs by Annexin V-FITC/PI staining based flow cytometry; format: functional, cell-based
[13] = biological target: T4, Protein deacetylase HDAC6 (Homo sapiens, UniProt Q9UBN7); assay: Inhibition of C-terminal GST tagged human recombinant full length HDAC6 (1 to 1215 residues) using Z- Lys(Ac)-AMC as fluorogenic substrate incubated for 90 mins followed by trypsin addition and measured after 30 min by microplate reader analysis
T4 sequence (Q9UBN7 whole entry): T1 sequence (whole entry)

Histone deacetylase 2 [14] = biological target: T3, Histone deacetylase 2; assay: Induction of HDAC2 degradation in human MM1.S cells at 20 uM incubated for 24 hrs by immunoblot analysis; format: cell-based

Row | Activity [2] | Activity (Histone deacetylase 1 [3]) | Emax (Histone deacetylase 1 [4]) | IC50 (Histone deacetylase 2 [5]) | IC50 (Histone deacetylase) | inhibition [8] | Activity [9] | IC50 (Histone deacetylase 1 [10]) | IC50 (MM1.S [11]) | IC50 [13] | SMILES | Activity (MM1.S [1]) | Activity (MM1.S [7]) | Activity (MM1.S [12]) | also measured
1 | inactive | Active | 47% | 434 nM | 1170 nM | inactive | inactive | 350 nM | 10300 nM | 17.7 nM | O=C(CCCCCCNC(=O)c1ccc(-c2cn(CCCCCCOCCOCCNC(=O)CC34C[C@H]5C[C@@H](C3)C[C@@H](C4)C5)nn2)cc1)NO | – | Active | Active | Activity (Histone deacetylase 1 [6]): inactive
2 | inactive | Active | 47% | 246 nM | 580 nM | inactive | inactive | 133 nM | 7230 nM | 5.9 nM | O=C(CCCCCCNC(=O)c1ccc(NC(=O)CNC(=O)CC23C[C@H]4C[C@@H](C2)C[C@@H](C3)C4)cc1)NO | – | Active | Active | Activity (Histone deacetylase 2 [14]): Active
3 | – | – | – | – | – | – | – | – | 23800 nM | – | O=C(CCCCCCNC(=O)c1ccc(NC(=O)CCCNC(=O)CC23C[C@H]4C[C@@H](C2)C[C@@H](C3)C4)cc1)NO | – | – | – | –
4 | – | – | – | – | – | – | – | – | 22800 nM | – | O=C(CCCCCCNC(=O)c1ccc(NC(=O)CCCCCNC(=O)CC23C[C@H]4C[C@@H](C2)C[C@@H](C3)C4)cc1)NO | – | – | – | –
5 | inactive | Active | 47% | 295 nM | 1120 nM | inactive | inactive | 192 nM | 3970 nM | 5.2 nM | O=C(CCCCCCNC(=O)c1ccc(NC(=O)CC23C[C@H]4C[C@@H](C2)C[C@@H](C3)C4)cc1)NO | – | Active | Active | Activity (Histone deacetylase 2 [14]): Active

The next lines start with the molecule.

Row | SMILES | Activity [2] | Activity (Histone deacetylase 1 [3]) | Emax (Histone deacetylase 1 [4]) | IC50 (Histone deacetylase 2 [5]) | IC50 (Histone deacetylase) | inhibition [8] | Activity [9] | IC50 (Histone deacetylase 1 [10]) | IC50 (MM1.S [11]) | IC50 [13] | Activity (MM1.S [1]) | Activity (MM1.S [7]) | Activity (MM1.S [12]) | also measured
6 | O=C(CC12C[C@H]3C[C@@H](C1)C[C@@H](C2)C3)NCCOCCOCCCCCCn1cc(COc2ccc(C(=O)NCc3ccc(C(=O)NO)cc3)cc2)nn1 | – | – | – | – | – | – | – | – | – | – | inactive | – | – | –
7 | O=C(CCCCCCNC(=O)c1ccc(NC(=O)CCCCCNC(=O)CC2c3ccccc3-c3ccccc32)cc1)NO | – | – | – | – | – | – | – | – | – | – | inactive | – | – | –
8 | O=C(CCCCCCNC(=O)c1ccc(NC(=O)CC2c3ccccc3-c3ccccc32)cc1)NO | – | – | – | – | – | – | – | – | – | – | inactive | – | – | –
9 | O=C(CC12C[C@H]3C[C@@H](C1)C[C@@H](C2)C3)NCCOCCOCCCCCCn1cc(-c2ccc(C(=O)NCc3ccc(C(=O)NO)cc3)cc2)nn1 | – | – | – | – | – | – | – | – | – | – | inactive | – | – | –
10 | O=C(CCCCCCNC(=O)c1ccc(NC(=O)CCCNC(=O)CC2c3ccccc3-c3ccccc32)cc1)NO | – | – | – | – | – | – | – | – | 68100 nM | – | – | – | – | –
11 | O=C(CCCCCCNC(=O)c1ccc(OCc2cn(CCCCCCOCCOCCNC(=O)CC34C[C@H]5C[C@@H](C3)C[C@@H](C4)C5)nn2)cc1)NO | – | – | – | – | – | – | – | – | 48800 nM | – | – | – | – | –
12 | O=C(CCCCCCNC(=O)c1ccc(NC(=O)CNC(=O)CC2c3ccccc3-c3ccccc32)cc1)NO | inactive | Active | 47% | 157 nM | 540 nM | inactive | inactive | 86.4 nM | 11600 nM | 3.3 nM | – | Active | Active | –
